Legend:
[1] = UV-Vis analysis of NO2-CLA generation by decomposition of NO2—NO3—CLA at different pH (312 nm); assay type: physicochemical; conditions: 312 nm (FIG. 1)
Protocol: Synthetic NO2—NO3—CLA standards were generated by performing independent reactions of 0.5 mg conjugated-9,11-linoleic acid (CLA, cat. no. UC-60A, Nu-Check Prep Inc., Elysian, Minn.) with 2 mM sodium nitrite (NaNO2) in 1 ml artificial gastric fluid for 1 h at 37° C., under continuous agitation. The lipid fraction was extracted by hexane, 50 μl were dried under a stream of nitrogen gas, dissolved in 300 μl methanol and decomposition of the NO2—NO3—CLA with generation of NO2-CLA was measured spectrophotometrically at 312 nm (FIG. 1). The addition of 10 μl acetic acid to the methanolic solution confirmed the stability of NO2—NO3—CLA at acidic pH (FIG. 1, diamond curve).

[2] = N-nitrosation of 2,3-diaminonaphtalene (DAN) to 2,3-naphthotriazole (NAT), followed by HPLC-MS/MS; assay type: physicochemical; conditions: for formation of NAT: 20 μM DAN
Protocol: To investigate if the degradation of NO2—NO3-CLA induced generation of nitrosative species, N-nitrosation of 2,3-diaminonaphtalene (DAN) to yield 2,3-naphthotriazole (NAT) was performed. Briefly, 25 μl synthetic NO2—NO3-CLA standards were dried under a stream of nitrogen gas, and resuspended in 1 ml of solvents at different polarity with 20 μM DAN. Then, formation of NAT was followed over 60 min by HPLC-MS/MS (FIG. 4).
Analysis of NAT was performed by HPLC-MS/MS using an analytical C18 Luna column (2×20 mm, 5 μm, Phenomenex) at a 0.75 ml/min flow rate, with a gradient solvent system consisting of water containing 0.1% acetic acid (solvent A) and acetonitrile containing 0.1% acetic acid (solvent B). Samples were chromatographically resolved using the following gradient program: 10-100% solvent B (0-3.3 min); 100% solvent B (3.3-4.2 min) followed by 0.8 min re-equilibration to initial conditions. An API4000 Q-trap triple quadrupole mass spectrometer (Applied Biosystems, San Jose, Calif.), equipped with an electrospray ionization source (ESI) in positive mode, was used with the following parameters: declustering potential, 70 V; entrance potential 5; collision cell exit potential 10; collision energy 35; and a desolvation temperature of 650° C. NAT was analyzed using the MRM transition 170.1/115.1.

**Q.** For CCCCCCC(/C=C/C(CCCCCCCC(=O)O)[N+](=O)[O-])O[N+](=O)[O-] (centres unmarked) [NO2—NO3-CLA, (E)-9-nitro-12-(nitrooxy)octadec-10-enoic acid], which “degradation of NO2—NO3—CLA with generation of NO2-CLA” value ([1]; methanolic solution + 10 μl phosphate buffer 50 mM pH 7.4 or 10 μl ammonium hydroxide) is on record?
**A.** pH-dependent

**Q.** What about the “rate of NO2-CLA generation on pH increase from pH 7.4 to more basic pH” value ([1]; phosphate buffer pH 7.4 versus ammonium hydroxide) of the same compound?
**A.** faster generation of NO2-CLA

**Q.** And the “formation of NAT” value ([2]; dissolved in methanol, over 60 min (FIG. 4, square curve))?
**A.** none formation of NAT was observed

**Q.** What about the “stability of NO2—NO3-CLA in basic pH” value ([2]; phosphate buffer 50 mM, pH 7.4 with 100 μM DTPA) of the same compound?
**A.** instability

**Q.** And the “formation of NAT” value ([2]; phosphate buffer 50 mM, pH 7.4 with 100 μM DTPA, over 60 min (FIG. 4, circle curve))?
**A.** time dependent generation of NAT
